# Results reported in patent publication US10821079B2, “PKC activators and combinations thereof” (Cognitive Research Enterprises, Inc., priority 2011, dated 2020).
# What was measured:
# [1] = system: primary rat hippocampal neurons; assay: Neuroprotection against ASPD induced toxicity, MTT, primary neurons; type: cell-based
# Procedure: Viability of cells was measured by MTT assay. MTT (3-(4,5-Dimethylthiazol-2-yl)-2,5-diphenyltetrazolium bromide) is a tetrazolium salt that is cleaved to formazan by the succinate dehydrogenase, which is only active in viable cells. After solubilization of the formazan, the amount of dye can be quantified with a microplate reader at 570 nm along with a reference of 630 nm. For MTT assay, 5×104 primary rat hippocampal neurons from 18-day-old embryonic Sprague-Dawley rat brains were plated on each well of 24-well plates coated with poly-D-lysine. After treatment, the cells were washed with 1×PBS and were incubated with 200 μl of 1 mg/ml MTT solution (Sigma, USA) at 37° C. for 2 hr. Then the MTT-solution was removed and the cells were lysed with 200 μl isopropanol containing 0.04 M HCl and 160 mM NaOH for 10 min. Finally, the reading was done at 570 nm and 630 nm. All the samples were done in triplicates and the data was represented as the percentage of control.
# All studies used 50 nM ASPDs. The viability of the cells were measured by the MTT assay.
# PKC-α = PKC-α translocation to membrane in SH-SY5Y cells (Western blot); type: cell-based, human; details: 0.27 nM, 0-60 min
# Procedure: Cells were harvested in homogenizing buffer containing 10 mM Tris-Cl (pH 7.4), 1 mM PMSF (phenylmethylsulfonyl fluoride), 1 mM EGTA, 1 mM EDTA, 50 mM NaF, and 20 μM leupeptin and were lysed by sonication. The homogenate was centrifuged at 100,000×g for 15 min at 4° C. to obtain the cytosolic fraction (supernatant) and membrane (pellet). The pellet was resuspended in the homogenizing buffer by sonication. Protein concentration was measured using the Coomassie Plus (Bradford) Protein Assay kit (Pierce, USA). Following quantification, 20 μg of protein from each sample was subjected to SDS-PAGE analysis in 4-20% gradient Tris-Glycine gel (Invitrogen, USA). The separated protein was then transferred to nitrocellulose membrane. The membrane was blocked with BSA at room temperature for 15 min and was incubated with primary antibody over night at 4° C. […] Western Blot was imaged in the ImageQuant RT-ECL (GE Life Sciences, Piscataway, N.J.) and densitometric quantification was performed using the IMAL software (Blanchette Rockefeller Neurosciences Institute, Morgantown, W. Va.). […]
# Equal amounts of proteins were loaded in each lane (20 μg) for both the cytosol and membrane fractions. Activation of PKC was calculated as the percentage of total PKC in the membrane (membrane/cytosol+membrane).
# PKC-ε-RACK1 = target: T1, PKC-ε-RACK1 (Homo sapiens, UniProt Q02156); assay: PKC-ε interaction with RACK1 (confocal colocalization, coimmunoprecipitation); type: cell-based; details: 0.27 nM
# T1 construct: host or cells: SH-SY5Y neuroblastoma cells
# Procedure: (§1) Cells were grown in two chambered slides (Nunc, USA) at low density. For immunofluorescence staining, the cells were washed with PBS (pH 7.4) and fixed with 4% paraformaldehyde for 4 min. Following fixation, the cells were blocked and permeabilized with 5% serum and 0.3% Triton X 100 in 1×PBS for 30 min. The cells were washed three times with 1×PBS and incubated with primary antibodies for 1 hr at 1:100 dilution. The incubation slides were then washed again three times in 1×PBS and were incubated with the FITC anti-rabbit IgG and Rhodamine anti-mouse IgG for 1 hr at 1:400 dilution. The cells were further washed and treated with DAPI (4′,6-diamidino-2′-phenylindole, dihydrochloride) (Thermo Scientific, USA) to stain the nucleus. Finally, the slides were washed and mounted in Pro Long Gold antifade mounting solution (Invitrogen, USA) and were viewed under the LSM 710 Meta confocal microscope (Zeiss) at 350 nm, 490 nm, and 540 nm excitation and 470 nm, 525 nm, and 625 nm emission for DAPI, FITC, and Rhodamine respectively. Six individual fields at 63× oil lens magnification were analyzed for the mean fluorescence intensity (MFI) in each channel. The co-localization correlation generated by the ZEN software (Zeiss).
# Coimmunoprecipitation was done following protocol described Besson et al. with slight modification. See Besson et al. (2002) J Biol Chem 277, 22073-22084. […] (DSP) for 30 min at room temperature to crosslink the intracellular proteins following the manufacturer's protocol. After crosslinking the proteins, the cells were lysed in the homogenizing buffer mentioned above. For immunoprecipitation, 500 μg of protein was incubated with 4 μg of appropriate antibody and 25 μl of Protein-A Sepharose beads (Invitrogen, USA) for 3 hr at 4° C. Immunoprecipitates were rinsed three times in the homogenizing buffer and were subjected to Western blot as described earlier.
# Next, cells were prepared according to the coimmunoprecipitation methods discussed above.
# PKC-α-RACK1 = target: T2, PKC-α-RACK1 (Homo sapiens, UniProt P17252); type: cell-based
# T2 construct: host or cells: SH-SY5Y neuroblastoma cells
# Procedure: as §1
# Coimmunoprecipitation was done following protocol described Besson et al. with slight modification. See Besson et al. (2002) J Biol Chem 277, 22073-22084. […]
# rat hippocampal neurons = assay: Differentiation of seven day old rat hippocampal neurons; type: cell-based; details: RA 10 μM, bryostatin 1 0.27 nM, DCPLA-ME 100 nM
# Procedure: FIG. 27: PKC-ε specific activation induces maturation and differentiation in rat primary neurons. Seven day old culture of rat hippocampal neurons were treated with RA (10 μM), 0.27 nM bryostatin 1(Bry), RA+bryostatin 1(RA+Bry), DCPLA-ME (100 nM) or RA+DCPLA-ME for 48 h. FIG. 27A—Confocal micrographs showing rat hippocampal neurons stained for MAP-2 (green), synaptophysin (red), and DAPI (blue). FIG. 27B—Graphical representation of number of dendritic branches per neuron. PKCε activation by RA+bryostatin 1(RA+Bry), DCPLA-ME or RA+DCPLA-ME increase the dendritic branching by 2-fold. FIG. 27C—Mean fluorescence intensity for MAP-2 or synaptophysin calculated from eight random 225 μm2 of confocal images. Data are represented as mean±SE. * represents significance with respect to control (* p<0.05, ** p<0.005 and *** p<0.0005).
# Dendritic branching was increased in the cells treated with RA and a PKC activator, as evidenced by the MAP-2 staining. Similarly, the synaptic vesicle pool increased was also seen by increased synaptophysin.
# The effect of RA+bryostatin 1 on development of primary neurons was also investigated. Seven day old rat hippocampal neurons were treated with RA, bryostatin 1, RA+bryostatin 1, DCPLA-methyl ester (“DCPLA-ME”) or RA+DCPLA-ME for 48 hr. RA+bryostatin produced a greater increase of MAP2 and synaptophysin than RA or bryostatin alone (FIGS. 27A & C).
# T1 sequence (Q02156 whole entry): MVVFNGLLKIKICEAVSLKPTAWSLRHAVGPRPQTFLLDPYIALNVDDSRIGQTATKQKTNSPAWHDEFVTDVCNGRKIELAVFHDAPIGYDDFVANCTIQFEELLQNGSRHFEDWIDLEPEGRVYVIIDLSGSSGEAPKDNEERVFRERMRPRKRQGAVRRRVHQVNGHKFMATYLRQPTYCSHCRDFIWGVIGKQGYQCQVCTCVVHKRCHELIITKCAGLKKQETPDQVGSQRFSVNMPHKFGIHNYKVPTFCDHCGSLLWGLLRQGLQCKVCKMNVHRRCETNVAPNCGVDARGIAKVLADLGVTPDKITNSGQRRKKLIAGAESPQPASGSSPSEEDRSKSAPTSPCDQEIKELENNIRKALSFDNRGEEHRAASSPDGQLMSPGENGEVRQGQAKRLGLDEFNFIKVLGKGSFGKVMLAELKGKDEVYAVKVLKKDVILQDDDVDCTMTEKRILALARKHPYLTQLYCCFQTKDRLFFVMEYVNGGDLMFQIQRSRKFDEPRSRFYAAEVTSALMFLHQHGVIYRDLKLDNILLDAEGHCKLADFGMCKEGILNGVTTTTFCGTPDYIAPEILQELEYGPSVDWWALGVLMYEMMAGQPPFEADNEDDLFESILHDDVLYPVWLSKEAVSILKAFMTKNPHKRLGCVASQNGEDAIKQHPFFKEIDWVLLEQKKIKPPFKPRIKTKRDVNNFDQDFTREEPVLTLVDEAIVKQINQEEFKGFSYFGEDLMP
Structure (SMILES),"viability (Example 25) ([1]; 50 nM ASPDs alone (ASPD) or with the treatment named, 24 hr)","viability at 0.00027 µM ([1]; Rattus norvegicus, Hippocampal neuron, 20 h, read-out: viability restored in ASPD-treated primary neurons) [%]",PKC-α translocation over time (in words) (PKC-α),PKC-ε-RACK1 interaction by RACK1 immunoprecipitation (in words) (PKC-ε-RACK1),colocalization correlation R (PKC-ε-RACK1; 5 min),colocalization correlation R (PKC-ε-RACK1; 15 min),PKC-α-RACK1 interaction by RACK1 immunoprecipitation (in words) (PKC-α-RACK1),colocalization correlation R (PKC-α-RACK1),increase of dendritic branching (rat hippocampal neurons; 48 h) [fold],Fractal dimension (dendritic branching) (rat hippocampal neurons; 48 hr)
CCC/C=C/C=C/C(=O)O[C@H]1/C(=C/C(=O)OC)C[C@H]2C[C@H]([C@@H](C)O)OC(=O)C[C@H](O)C[C@@H]3C[C@H](OC(C)=O)C(C)(C)C(O)(C[C@@H]4C/C(=C/C(=O)OC)C[C@H](/C=C/C(C)(C)[C@]1(O)O2)O4)O3 [Bryostatin-1],71.38%±2.34,73.2 ± 3.6,came down to baseline at 60 min,"increased significantly at 5, 15, and 30 min",0.71,0.72,increased at 15 min but decreased below the control level at 30 min,0.58,–,–
"CCCCCC1CC1CC1CC1CCCCCCCC(=O)OC (stereo not shown) [DCPLA-ME, methyl 8-(2-((2-pentylcyclopropyl)methyl)cyclopropyl)octanoate]",–,–,–,–,–,–,–,–,2,1.40±0.03
